Molecules are shown by their SMILES. Structures can show the parent of a compound that is named as a salt.

Take `CC(C)NC(=O)c1ccc(-c2ccc3c(c2)C(=O)N(CCN2CCC[C@H]2C)CC3)cc1` (as salt: hydrochloride) [Example 85, N-isopropyl-4-(2-{2-[(2R)-2-methylpyrrolidin-1-yl]ethyl}-1-oxo-1,2,3,4-tetrahydroiso-quinolin-7-yl)benzamide]: the melting point was 248 to 250 °C.

In turn, `C[C@@H]1CCCN1CCN1CCc2cc(C(=O)NC3Cc4ccccc4C3)ccc2C1=O` (as salt: hydrochloride) [Example 148, N-(2,3-dihydro-1H-inden-2-yl)-2-{2-[(2R)-2-methylpyrrolidin-1-yl]ethyl}-1-oxo-1,2,3,4-tetrahydroisoquinoline-6-carboxamide] gave a melting point of 145 to 146 °C.

Molecule `C[C@@H]1CCCN1CCN1CCc2cc(Oc3ccc(C#N)cc3)ccc2C1=O` (as salt: hydrochloride) [Example 49, 4-[(2-{2-[(2R)-2-methylpyrrolidin-1-yl]ethyl}-1-oxo-1,2,3,4-tetrahydroisoquinolin-6-yl)oxy]benzonitrile] gave a melting point of 254 to 255 °C.

Consider `O=C1c2ccc(-c3ccc(F)c(F)c3)cc2CCN1CCN1CCCC1` (as salt: hydrochloride) [Example 17, 6-(3,4-difluorophenyl)-2-(2-pyrrolidin-1-ylethyl)-3,4-dihydroisoquinolin-1(2H)-one], for which the melting point lay in the range of 179 to 180 °C.

In the case of `COC(=O)c1ccc(-c2ccc3c(c2)CCN(CCN2CCCC2)C3=O)cc1` (as salt: hydrochloride), the melting point lay in the range of 118 to 120 °C.

Molecule `O=C(NCCOc1ccccc1)c1ccc(-c2ccc3c(c2)CCN(CCN2CCCC2)C3=O)cc1` (as salt: hydrochloride) [Example 71, 4-[1-oxo-2-(2-pyrrolidin-1-ylethyl)-1,2,3,4-tetrahydroisoquinolin-6-yl]-N-(2-phenoxyethyl)-benzamide] had a melting point of 123 to 130 °C.

The molecule `NC(=O)c1ccc(-c2ccc3c(c2)CCN(CCN2CCCC2)C3=O)cc1` (as salt: hydrochloride) [Example 67, 4-[1-oxo-2-(2-pyrrolidin-1-ylethyl)-1,2,3,4-tetrahydroisoquinolin-6-yl]benzamide] had a melting point of 268 to 270 °C.

Molecule `N#Cc1ccc(-c2ccc3c(c2)CCN(CCN2CCCC2)C3=O)cc1` (as salt: hydrochloride) [Example 19, 4-[1-oxo-2-(2-pyrrolidin-1-ylethyl)-1,2,3,4-tetrahydroisoquinolin-6-yl]benzonitrile] yielded a melting point of 249 to 251 °C.

`O=C(c1ccc2c(c1)CCN(CCN1CCCC1)C2=O)N1Cc2ccccc2C1` (as salt: hydrochloride) [Example 156, 6-(isoindoline-2-carbonyl)-2-(2-(pyrrolidin-1-yl)ethyl)-3,4-dihydroisoquinolin-1(2H)-one] returned a melting point of 220 to 221 °C.

`N#Cc1cccc(-c2ccc3c(c2)CCN(CCN2CCCC2)C3=O)c1` (as salt: hydrochloride) [Example 15, 3-[1-oxo-2-(2-pyrrolidin-1-ylethyl)-1,2,3,4-tetrahydroisoquinolin-6-yl]benzonitrile] had a melting point of 204 to 206 °C.

`O=C(c1ccc(-c2ccc3c(c2)CCN(CCN2CCCC2)C3=O)cc1)N1CCCCC1` (as salt: hydrochloride) [Example 79, 6-[4-(piperidin-1-ylcarbonyl)phenyl]-2-(2-pyrrolidin-1-ylethyl)-3,4-dihydroisoquinolin-1(2H)-one] displayed a melting point of 240 to 241 °C.

Molecule `O=C(NC1CC1)c1ccc(-c2ccc3c(c2)CCN(CCN2CCCC2)C3=O)cc1` (as salt: hydrochloride) [Example 57, N-cyclopropyl-4-[1-oxo-2-(2-pyrrolidin-1-ylethyl)-1,2,3,4-tetrahydroisoquinolin-6-yl]benzamide] had a melting point of 222 to 224 °C.

Molecule `O=C(c1ccc(-c2ccc3c(c2)CCN(CCN2CCCC2)C3=O)cc1)N1CCOCC1` (as salt: hydrochloride) [Example 122, 6-[4-(morpholin-4-ylcarbonyl)phenyl]-2-(2-pyrrolidin-1-ylethyl)-3,4-dihydroisoquinolin-1(2H)-one] showed a melting point of 272 to 274 °C.

In turn, `NC(=O)c1ccc(-c2ccc3c(c2)CCN(CCN2CCCC2)C3)cc1` (as salt: hydrochloride) [Example 180, 4-[2-(2-pyrrolidin-1-ylethyl)-1,2,3,4-tetrahydroisoquinolin-6-yl]benzamide] registered a melting point of 262 to 264 °C.

`C[C@@H]1CCCN1CCN1CCc2cc(-c3ccc(C(=O)NC4CCC4)cc3)ccc2C1=O` (as salt: hydrochloride) [Example 74, N-cyclobutyl-4-(2-{2-[(2R)-2-methylpyrrolidin-1-yl]ethyl}-1-oxo-1,2,3,4-tetrahydroisoquinolin-6-yl)benzamide]: the melting point was in the range of 210 to 211 °C.

Molecule `COCCNC(=O)c1ccc(-c2ccc3c(c2)CCN(CCN2CCCC2)C3=O)cc1` (as salt: hydrochloride) [Example 69, N-(2-methoxyethyl)-4-[1-oxo-2-(2-pyrrolidin-1-ylethyl)-1,2,3,4-tetrahydroisoquinolin-6-yl]benzamide] displayed a melting point of 178 to 180 °C.

`C[C@H]1CCCN1CCN1CCc2cc(-c3ccc(F)cc3)ccc2C1=O` (as salt: hydrochloride) [Example 39, 6-(4-fluorophenyl)-2-{2-[(2S)-2-methylpyrrolidin-1-yl]ethyl}-3,4-dihydroiso-quinolin-1(2H)-one hydrochloride] displayed a melting point of 244 to 247 °C.

With `CCNC(=O)c1ccc(-c2ccc3c(c2)CCN(CCN2CCCC2)C3=O)c(F)c1` (as salt: hydrochloride) [Example 140, N-ethyl-3-fluoro-4-[1-oxo-2-(2-pyrrolidin-1-ylethyl)-1,2,3,4-tetrahydroisoquinolin-6-yl]benzamide], the melting point was 209 to 210 °C.

In turn, `O=C1c2ccc(-c3cc(F)cc(F)c3)cc2CCN1CCN1CCCC1` (as salt: hydrochloride) [Example 10, 6-(3,5-difluorophenyl)-2-(2-pyrrolidin-1-ylethyl)-3,4-dihydroisoquinolin-1(2H)-one] gave a melting point of 196 to 198 °C.

Take `O=C1c2ccc(-c3ccc4c(c3)OCO4)cc2CCN1CCN1CCCC1` (as salt: hydrochloride) [Example 21, 6-(1,3-benzodioxol-5-yl)-2-(2-pyrrolidin-1-ylethyl)-3,4-dihydroisoquinolin-1(2H)-one]: the melting point lay in the range of 249 to 251 °C.

`CCN(CC)C(=O)c1ccc(-c2ccc3c(c2)CCN(CCN2CCC[C@H]2C)C3=O)cc1` (as salt: hydrochloride) [Example 65, N,N-diethyl-4-(2-{2-[(2R)-2-methylpyrrolidin-1-yl]ethyl}-1-oxo-1,2,3,4-tetrahydroisoquinolin-6-yl)benzamide] returned a melting point of 221 to 222 °C.

`CC(C)NC(=O)c1ccc(-c2ccc3c(c2)CCN(CCN2CCC[C@H]2C)C3=O)cc1` (as salt: hydrochloride) [Example 77, N-isopropyl-4-(2-{2-[(2R)-2-methylpyrrolidin-1-yl]ethyl}-1-oxo-1,2,3,4-tetrahydroisoquinolin-6-yl)benzamide] gave a melting point of 188 to 189 °C.

`COc1ccc(-c2ccc3c(c2)CCN(CCN2CCCC2)C3=O)cc1` (as salt: hydrochloride) [Example 23, 6-(4-methoxyphenyl)-2-(2-pyrrolidin-1-ylethyl)-3,4-dihydroisoquinolin-1(2H)-one] showed a melting point of 224 to 225 °C.

As a reminder, the melting point is the temperature of the solid-liquid transition.
